Measurements reported in patent US12054498B2, “Heteroaromatic macrocyclic ether chemotherapeutic agents” (Nuvalent, Inc., priority 2020, dated 2024).

How the values were obtained:
[1] = biological target: T1, ROS1-G2032R (Homo sapiens, UniProt P08922, G2032R); assay: Biochemical kinase assay, ROS1-G2032R kinase domain; details: apparent inhibitory constant, Morrison equation; ATP 2 mM in substrate solution; read-out: ROS1-G2032R Ki^app
T1 construct: purchased SignalChem R14-12BG
Procedure: (§1) First, 250 nL of compound dissolved in DMSO (100-fold of the desired concentration) was dispensed into a 384-well plate. A 12.5 μL substrate solution containing ATP (2 mM) and fluorogenic phosphorylation substrate AQT0101 (26 μM for ALK and ROS1, AssayQuant) or AQT0104 (26 μM for TRKA, AssayQuant) in buffer (50 mM HEPES pH 7.5, 0.01% Brij-35, 0.5 mM EGTA, 10 mM MgCl2) was added and mixed thoroughly. […] The plate was sealed and read by SpectraMax Paradigm at λ=485 nm every 2 minutes for 120 minutes at 30° C. Initial rates of reaction (v) were calculated from the change in fluorescence intensity over time during the initial, linear portion of the reaction. Finally, apparent inhibitory constants (Ki^app) were determined from regression of v and I (inhibitor concentration) to Morrison Equation (E=enzyme concentration): […]

[2] = biological target: T2, Ba/F3 cells TPM3-TRKA (Homo sapiens, UniProt P04629); assay: Ba/F3 cell proliferation assay, TPM3-TRKA; format: cell-based; details: 72 hours, CellTiter-Glo, read-out: TPM3-NTRK1-wt IC50
T2 construct: host or cells: Ba/F3 (RIKEN), retroviral pMSCV-puro; the other entry of the earlier key: TPM3 (P06753, Tropomyosin alpha-3 chain)
T2 sequence (P04629 510-796 limits assumed): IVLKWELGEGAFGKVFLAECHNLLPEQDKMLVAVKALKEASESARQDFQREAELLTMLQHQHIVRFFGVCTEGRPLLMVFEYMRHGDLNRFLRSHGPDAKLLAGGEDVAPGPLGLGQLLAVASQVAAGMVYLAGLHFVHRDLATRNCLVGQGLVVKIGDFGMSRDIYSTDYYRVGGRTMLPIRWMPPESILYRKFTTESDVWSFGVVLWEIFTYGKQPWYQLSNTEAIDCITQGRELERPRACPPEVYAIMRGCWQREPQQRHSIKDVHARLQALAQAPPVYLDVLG
Description: (§2) Genes encoding CD74-ROS1 wild-type (wt), CD74-ROS1 G2032R, CD74-ROS1 S1986F, CD74-ROS1 L2026M, CD74-ROS1 D2033N, EML4-ALK wt (variant 1), EML4-ALK G1202R (variant 1), EML4-ALK L1196M/G1202R (variant 1), EML4-ALK G1202R/G1269A (variant 1), EML4-ALK G1202R/L1198F (variant 1), and TPM3-TRKA were synthesized at GeneRay, cloned into the retroviral construct pMSCV-puro (Biovector), and packaged into retroviral particles. The virus was used to infect Ba/F3 cells (RIKEN) at multiplicity of infection=1 for 1 day. Infected cells were rescued in media (RPMI-1640 with 10% fetal bovine serum and 1% streptomycin and penicillin) supplemented with mouse IL-3 (10 ng/mL) for 2 days, and stable cell lines were selected by IL-3 withdrawal and puromycin (0.8 μg/mL) for 7 days. Monoclones were selected by single-cell dilution in IL-3-free medium containing puromycin (0.8 μg/mL). Transformation of desired genes was confirmed by Sanger sequencing and western blot using the following antibodies: ROS1 (CST #3287), ALK (CST #3633), and pan-TRK (Abcam #76291).
(§3) Cell Proliferation Assay Stable cells were plated at 1,000 cells/well (40 μL) in a 384-well plate for 1 day.
(§4) Test compounds (40 nL) were then added in a 3-fold dilution series using the TECAN EVO200 liquid handler and incubated for 72 hours. Plates were equilibrated at room temperature for 15 minutes followed by addition of 40 μL CellTiter-Glo reagent (Promega).
(§5) Luminescence was measured on a plate reader. Half-maximal inhibitory concentration (IC50) was calculated from percent inhibition and inhibitor concentration using four-parameter logistic regression. […] (nd=not determined).

[3] = biological target: T3, ALK L1196M/G1202R (Homo sapiens, UniProt Q9UM73, G1202R/L1196M); assay: Biochemical kinase assay, ALK L1196M/G1202R kinase domain; details: apparent inhibitory constant, Morrison equation; ATP 2 mM in substrate solution; read-out: ALK-L1196M-G1202R Ki^app
T3 construct: purchased SignalChem A19-12NG
T3 sequence (Q9UM73 1116-1392 L1196M/G1202R limits assumed): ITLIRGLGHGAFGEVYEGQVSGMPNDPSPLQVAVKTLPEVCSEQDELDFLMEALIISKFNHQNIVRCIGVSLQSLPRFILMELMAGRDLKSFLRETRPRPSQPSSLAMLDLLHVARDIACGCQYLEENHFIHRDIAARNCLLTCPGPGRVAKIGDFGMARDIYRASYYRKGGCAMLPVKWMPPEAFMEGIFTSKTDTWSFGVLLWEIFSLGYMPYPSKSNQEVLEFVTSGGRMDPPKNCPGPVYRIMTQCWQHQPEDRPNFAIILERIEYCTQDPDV
Procedure: (§6) First, 250 nL of compound dissolved in DMSO (100-fold of the desired concentration) was dispensed into a 384-well plate. A 12.5 μL substrate solution containing ATP (2 mM) and fluorogenic phosphorylation substrate AQT0101 (26 μM for ALK and ROS1, AssayQuant) or AQT0104 (26 μM for TRKA, AssayQuant) in buffer (50 mM HEPES pH 7.5, 0.01% Brij-35, 0.5 mM EGTA, 10 mM MgCl2) was added and mixed thoroughly. Then, a 12.5 μL kinase solution containing ALK-wt (1.5 nM, Carna, 08-518), ALK ALK L1196M/G1202R (3 nM, SignalChem, A19-12NG), ROS1-wt (0.6 nM, Carna, 08-163), ROS1-G2032R (0.5 nM, SignalChem, R14-12BG), or TRKA-wt (1 nM, BPS Bio, 40280) kinase domains in buffer ([…] HEPES pH 7.5, 0.01% Brij-35, 2% glycerol, 0.4 mg/mL BSA, 0.5 mM EGTA, and 10 mM MgCl2) was added and mixed thoroughly. The plate was sealed and read by SpectraMax Paradigm at λ=485 nm every 2 minutes for 120 minutes at 30° C. Initial rates of reaction (v) were calculated from the change in fluorescence intensity over time during the initial, linear portion of the reaction. Finally, apparent inhibitory constants (Ki^app) were determined from regression of v and I (inhibitor concentration) to Morrison Equation (E=enzyme concentration): […]

[4] = biological target: T4, ROS1-wt (Homo sapiens, UniProt P08922); assay: Biochemical kinase assay, ROS1-wt kinase domain; details: apparent inhibitory constant, Morrison equation; ATP 2 mM in substrate solution; read-out: ROS1-wt Ki^app
T4 construct: purchased Carna 08-163
T4 sequence (P08922 1945-2222 limits assumed): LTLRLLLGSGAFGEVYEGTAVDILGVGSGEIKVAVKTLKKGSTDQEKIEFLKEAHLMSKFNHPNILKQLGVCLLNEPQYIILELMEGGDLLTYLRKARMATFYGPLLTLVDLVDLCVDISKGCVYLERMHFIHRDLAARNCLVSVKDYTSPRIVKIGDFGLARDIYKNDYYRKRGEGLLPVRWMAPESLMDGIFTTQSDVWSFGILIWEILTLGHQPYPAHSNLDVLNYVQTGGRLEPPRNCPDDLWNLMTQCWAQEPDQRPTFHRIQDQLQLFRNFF
Procedure: as §1

[5] = system: TPM3-NTRK1-wt IC50 / primary target IC50 (e.g. CD74-ROS1-wt); assay: TRKA selectivity in Ba/F3 cells (TRKA potency divided by primary target potency); format: cell-based; details: for TPM3-NTRK1-wt/CD74-ROS1-G2032R selectivity ratio: TRKA potency / CD74-ROS1-G2032R potency; for TPM3-NTRK1-wt/EML4-ALK-L1196M-G1202R selectivity ratio: TRKA potency / EML4-ALK-L1196M-G1202R potency; for TPM3-NTRK1-wt/CD74-ROS1-wt selectivity ratio: TRKA potency / CD74-ROS1-wt potency; for TPM3-NTRK1-wt/EML4-ALK-wt selectivity ratio: TRKA potency / EML4-ALK-wt potency
Procedure: TRKA selectivity was calculated by dividing a compound's TRKA potency by its primary target potency (e.g. TPM3-NTRK1-wt IC50/CD74-ROS1-wt IC50). Compound selectivity can be interpreted by binning ratio values: bin A for very high selectivity, ratio >30-fold; bin B for high selectivity, ratio >10-fold; bin C for moderate selectivity, ratio ≥1; and bin D for low selectivity, ratio <1. […] (nd=not determined).

[6] = biological target: T5, ALK-wt (Homo sapiens, UniProt Q9UM73); assay: Biochemical kinase assay, ALK-wt kinase domain; details: apparent inhibitory constant, Morrison equation; ATP 2 mM in substrate solution; read-out: ALK-wt Ki^app
T5 construct: purchased Carna 08-518
T5 sequence (Q9UM73 1116-1392 limits assumed): as the sequence (Q9UM73 1116-1392 L1196M/G1202R limits assumed) above, with M81L, R87G counted along it
Procedure: as §6

[7] = biological target: T6, TRKA-wt (Homo sapiens, UniProt P04629); assay: Biochemical kinase assay, TRKA-wt kinase domain; details: apparent inhibitory constant, Morrison equation; ATP 2 mM in substrate solution; read-out: TRKA-wt Ki^app
T6 construct: or TRKA-wt (1 nM, BPS Bio, 40280) kinase domains in buffer; purchased BPS Bio 40280
T6 sequence (P04629 510-781 limits assumed): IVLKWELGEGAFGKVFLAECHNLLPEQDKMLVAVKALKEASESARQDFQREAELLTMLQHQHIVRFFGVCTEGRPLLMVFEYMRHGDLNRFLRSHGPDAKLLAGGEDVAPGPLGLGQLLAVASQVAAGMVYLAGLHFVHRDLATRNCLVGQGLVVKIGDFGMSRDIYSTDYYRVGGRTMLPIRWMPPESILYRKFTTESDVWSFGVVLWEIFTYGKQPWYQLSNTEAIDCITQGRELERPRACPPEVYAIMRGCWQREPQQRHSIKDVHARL
Procedure: as §6

[8] = biological target: T7, Ba/F3 cells EML4-ALK L1196M/G1202R (variant 1) (Homo sapiens, UniProt Q9UM73, G1202R/L1196M); assay: Ba/F3 cell proliferation assay, EML4-ALK L1196M/G1202R (variant 1); format: cell-based; details: 72 hours, CellTiter-Glo
T7 construct: echinoderm microtubule-associated protein-like 4 (EML4) gene and the ALK tyrosine kinase domain; host or cells: Ba/F3 (RIKEN), retroviral pMSCV-puro; the other entry of the earlier key: EML4 (Q9HC35, Echinoderm microtubule-associated protein-like 4)
T7 sequence (Q9UM73 with tags, fused parts or gaps L1196M/G1202R): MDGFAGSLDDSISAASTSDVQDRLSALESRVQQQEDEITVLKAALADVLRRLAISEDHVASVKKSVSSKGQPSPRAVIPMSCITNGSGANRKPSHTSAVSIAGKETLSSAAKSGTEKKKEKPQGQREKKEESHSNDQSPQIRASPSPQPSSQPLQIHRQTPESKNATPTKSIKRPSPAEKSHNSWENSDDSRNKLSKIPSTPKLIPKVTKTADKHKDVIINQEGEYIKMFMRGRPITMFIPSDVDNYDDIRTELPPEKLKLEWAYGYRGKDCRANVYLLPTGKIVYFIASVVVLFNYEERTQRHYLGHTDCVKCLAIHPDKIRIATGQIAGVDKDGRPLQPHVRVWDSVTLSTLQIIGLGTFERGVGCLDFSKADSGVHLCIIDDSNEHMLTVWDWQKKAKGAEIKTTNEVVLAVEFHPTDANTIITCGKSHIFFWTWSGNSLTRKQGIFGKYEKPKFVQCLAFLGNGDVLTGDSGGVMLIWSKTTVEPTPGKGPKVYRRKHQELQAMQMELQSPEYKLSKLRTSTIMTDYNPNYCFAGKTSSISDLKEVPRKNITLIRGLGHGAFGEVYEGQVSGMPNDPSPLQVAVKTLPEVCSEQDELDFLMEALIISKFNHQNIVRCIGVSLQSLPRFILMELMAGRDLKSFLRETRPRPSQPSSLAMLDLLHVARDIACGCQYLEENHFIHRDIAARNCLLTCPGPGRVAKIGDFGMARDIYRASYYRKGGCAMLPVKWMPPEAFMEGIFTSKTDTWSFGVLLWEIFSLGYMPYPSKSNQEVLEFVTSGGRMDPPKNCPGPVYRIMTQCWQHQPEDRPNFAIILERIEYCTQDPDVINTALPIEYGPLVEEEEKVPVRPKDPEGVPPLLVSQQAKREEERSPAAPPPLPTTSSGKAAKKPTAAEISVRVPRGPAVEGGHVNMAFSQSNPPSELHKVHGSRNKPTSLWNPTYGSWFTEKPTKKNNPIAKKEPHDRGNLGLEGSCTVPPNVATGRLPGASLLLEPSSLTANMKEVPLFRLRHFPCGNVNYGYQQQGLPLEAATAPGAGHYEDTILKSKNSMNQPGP
Description: as §2, §3, §4, §5

[9] = biological target: T8, Ba/F3 cells CD74-ROS1 G2032R (Homo sapiens, UniProt P08922, G2032R); assay: Ba/F3 cell proliferation assay, CD74-ROS1 G2032R; format: cell-based; details: 72 hours, CellTiter-Glo
T8 construct: fusion of the C-terminus of ROS1 with the N-terminus of various partner proteins; host or cells: Ba/F3 (RIKEN), retroviral pMSCV-puro; the other entry of the earlier key: CD74 (P04233, HLA class II histocompatibility antigen gamma chain)
T8 sequence (P08922 1883-2347 G2032R limits assumed): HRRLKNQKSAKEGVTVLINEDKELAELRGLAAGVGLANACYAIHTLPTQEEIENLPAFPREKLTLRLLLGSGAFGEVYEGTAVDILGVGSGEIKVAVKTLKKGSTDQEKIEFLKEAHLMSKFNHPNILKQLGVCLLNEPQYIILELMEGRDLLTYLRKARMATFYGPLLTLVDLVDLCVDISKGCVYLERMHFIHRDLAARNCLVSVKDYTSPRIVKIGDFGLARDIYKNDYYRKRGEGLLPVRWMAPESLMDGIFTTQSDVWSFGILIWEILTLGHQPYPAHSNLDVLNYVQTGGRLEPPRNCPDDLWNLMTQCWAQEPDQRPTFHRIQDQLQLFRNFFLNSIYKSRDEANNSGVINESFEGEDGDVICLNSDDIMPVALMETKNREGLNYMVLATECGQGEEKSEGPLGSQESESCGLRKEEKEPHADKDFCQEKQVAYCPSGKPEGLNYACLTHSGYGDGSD
Procedure: (§7) The virus was used to infect Ba/F3 cells (RIKEN) at multiplicity of infection=1 for 1 day. Infected cells were rescued in media (RPMI-1640 with 10% fetal bovine serum and 1% streptomycin and penicillin) supplemented with mouse IL-3 (10 ng/mL) for 2 days, and stable cell lines were selected by IL-3 withdrawal and puromycin (0.8 μg/mL) for 7 days. Monoclones were selected by single-cell dilution in IL-3-free medium containing puromycin (0.8 μg/mL).
as §3, §4, §5

[10] = biological target: T9, Ba/F3 cells EML4-ALK wt (variant 1) (Homo sapiens, UniProt Q9UM73); assay: Ba/F3 cell proliferation assay, EML4-ALK wt (variant 1); format: cell-based; details: 72 hours, CellTiter-Glo
T9 construct: echinoderm microtubule-associated protein-like 4 (EML4) gene and the ALK tyrosine kinase domain; host or cells: Ba/F3 (RIKEN), retroviral pMSCV-puro; the other entry of the earlier key: EML4 (Q9HC35, Echinoderm microtubule-associated protein-like 4)
T9 sequence (Q9UM73 with tags, fused parts or gaps): as the sequence (Q9UM73 with tags, fused parts or gaps L1196M/G1202R) above, with M635L, R641G counted along it
Description: as §2, §3, §4, §5

[11] = biological target: T10, Ba/F3 cells CD74-ROS1 wild-type (wt) (Homo sapiens, UniProt P08922); assay: Ba/F3 cell proliferation assay, CD74-ROS1 wild-type; format: cell-based; details: 72 hours, CellTiter-Glo
T10 construct: fusion of the C-terminus of ROS1 with the N-terminus of various partner proteins; host or cells: Ba/F3 (RIKEN), retroviral pMSCV-puro; the other entry of the earlier key: CD74 (P04233, HLA class II histocompatibility antigen gamma chain)
T10 sequence (P08922 1883-2347 limits assumed): as the sequence (P08922 1883-2347 G2032R limits assumed) above, with R150G counted along it
Procedure: as §7, §3, §4, §5

T1 sequence (P08922 1945-2222 G2032R limits assumed): as the sequence (P08922 1945-2222 limits assumed) above, with G88R counted along it

CCn1ncc2c1-c1cnc(N)c(c1)O[C@H](C)c1cc(F)ccc1-c1nccnc1C2 [Example 36, (20R)-3-ethyl-17-fluoro-20-methyl-21-oxa-3,4,9,12,24-pentaazapentacyclo[20.3.1.0^2,^6.0^8,^13.0^14,^19]hexacosa-1(25),2(6),4,8(13),9,11,14,16,18,22(26),23-undecaen-23-amine]
Ki [1]: < 50 nM
IC50 [2]: 50 to 500 nM
Ki [3]: < 50 nM
Ki [4]: < 50 nM
TPM3-NTRK1-wt/CD74-ROS1-G2032R selectivity ratio [5]: A (bin A for very high selectivity, ratio >30-fold)
TPM3-NTRK1-wt/EML4-ALK-L1196M-G1202R selectivity ratio [5]: B (bin B for high selectivity, ratio >10-fold)
Ki [6]: < 50 nM
Ki [7]: 50 to 500 nM
IC50 [8]: 0.1 to 50 nM
IC50 [9]: 0.1 to 50 nM

Cc1nn(CC2CC2)c2c1Cc1nn(C)nc1-c1ccc(F)cc1[C@@H](CO)Oc1cc-2cnc1N [Example 96, [(19S)-22-amino-3-(cyclopropylmethyl)-16-fluoro-5,10-hexaazapentacyclo[19.3.1.0^2,^6.0^8,^12.0^13,^18]pentacosa-1(24),2(6),4,8,11,13,15,17,21(25),22-decaen-19-yl]methanol]
Ki [1]: < 50 nM
IC50 [2]: > 500 nM
Ki [3]: < 50 nM
Ki [4]: < 50 nM
TPM3-NTRK1-wt/EML4-ALK-L1196M-G1202R selectivity ratio [5]: A (bin A for very high selectivity, ratio >30-fold)
Ki [6]: < 50 nM
Ki [7]: > 500 nM
IC50 [8]: 50 to 500 nM

CCn1ncc2c1-c1cnc(N)c(c1)O[C@H](C)c1cc(F)ccc1-c1cc(OC)nn1C2 [Example 89, (19R)-3-ethyl-16-fluoro-10-methoxy-19-methyl-20-oxa-3,4,8,9,23-pentaazapentacyclo[19.3.1.0^2,^6.0^8,^12.0^13,^18]pentacosa 1(24),2(6),4,9,11,13,15,17,21(25),22-decaen-22-amine]
Ki [1]: < 50 nM
IC50 [2]: 50 to 500 nM
Ki [3]: < 50 nM
IC50 [10]: 0.1 to 50 nM
TPM3-NTRK1-wt/CD74-ROS1-G2032R selectivity ratio [5]: A (bin A for very high selectivity, ratio >30-fold)
TPM3-NTRK1-wt/CD74-ROS1-wt selectivity ratio [5]: A (bin A for very high selectivity, ratio >30-fold)
TPM3-NTRK1-wt/EML4-ALK-L1196M-G1202R selectivity ratio [5]: D (bin D for low selectivity, ratio <1)
TPM3-NTRK1-wt/EML4-ALK-wt selectivity ratio [5]: B (bin B for high selectivity, ratio >10-fold)
Ki [6]: < 50 nM
Ki [7]: 50 to 500 nM
IC50 [11]: 0.1 to 50 nM
IC50 [8]: 50 to 500 nM
IC50 [9]: 0.1 to 50 nM

CCn1ncc2c1-c1cnc(N)c(c1)O[C@H](C)c1cc(F)ccc1-c1nn(C)nc1C2 [Example 5, (19R)-3-ethyl-16-fluoro-10,19-dimethyl-20-oxa-3,4,9,10,11,23-hexaazapentacyclo[19.3.1.0^2,^6.0^8,^12.0^13,^18]pentacosa-1(24),2(6),4.8,11,13,15,17,21(25),22-decaen-22-amine]
IC50 [2]: 50 to 500 nM
Ki [3]: < 50 nM
IC50 [10]: 0.1 to 50 nM
Ki [6]: < 50 nM
Ki [7]: 50 to 500 nM
IC50 [8]: 0.1 to 50 nM

CCn1nc(OC)c2c1-c1cnc(N)c(c1)O[C@H](C)c1cc(F)ccc1-c1cc(C)nn1C2 [Example 32, (19R)-3-ethyl-16-fluoro-5-methoxy-10,19-dimethyl-20-oxa-3,4,8,9,23-pentaazapentacyclo[19.3.1.0^2,^6.0^8,^12.0^13,^18]pentacosa-1(24),2(6),4,9,11,13,15,1 7,21(25),22-decaen-22-amine]
IC50 [2]: 50 to 500 nM
IC50 [10]: 0.1 to 50 nM
TPM3-NTRK1-wt/CD74-ROS1-G2032R selectivity ratio [5]: A (bin A for very high selectivity, ratio >30-fold)
TPM3-NTRK1-wt/CD74-ROS1-wt selectivity ratio [5]: A (bin A for very high selectivity, ratio >30-fold)
TPM3-NTRK1-wt/EML4-ALK-L1196M-G1202R selectivity ratio [5]: C (bin C for moderate selectivity, ratio ≥1)
TPM3-NTRK1-wt/EML4-ALK-wt selectivity ratio [5]: B (bin B for high selectivity, ratio >10-fold)
IC50 [11]: 0.1 to 50 nM
IC50 [8]: 50 to 500 nM
IC50 [9]: 0.1 to 50 nM
